According to US20100184037A1, “DEATH ASSOCIATED PROTEIN KINASE 1 (DAPK1) AND USES THEREOF FOR THE TREATMENT OF CHRONIC LYMPOCYTIC LEUKEMIA” (THE OHIO STATE UNIVERSITY RESEARCH FOUNDATION, priority 2007, published 2010):

Key:
DAPK1 = assay: Decitabine treatment of Raji cells, RT-PCR for DAPK1; type: cell-based; conditions: for 3, 6, 9, and 12 days
Text: Next we treated Raji cells with 0.51.LM Decitabine for 3, 6, 9, and 12 days.
Blood was obtained from patients with B-cell CLL through the CLL Research Consortium (CRC), from the Ohio State University and Uppsala University tissue banks. CLL patients from OSU and CRC consortium and healthy volunteers provided written informed consent using Institutional Review Board-approved protocols. Written consent for Uppsala samples was provided according to the declaration of Helsinki. Seven CD 19+ selected CLL samples were obtained by positive selection using magnetic beads conjugated to anti-CD19 (MACS, Miltenyi Biotec, Auburn Calif.). The resulting cells are at least 95% CD19 positive. All patients had immunophenotypically defined CLL as outlined by the modified 96 NCI criteria (Cheson et al., 1996) and for Uppsala samples, according to WHO classification. The CLL cell line WaC3CD5, described previously (Wendel-Hansen et al., 1994), Jurkat, Raji and lymphoblastoid cell lines were incubated (37° C. and 5% C02) in RPMI 1640 supplemented with 10% FBS (HyClone Laboratories, Logan, Utah), 2 mM L-glutamine, 100 U/ml penicillin, and 100 μg/ml streptomycin (all from Invitrogen, Carlsbad Calif.). […]
Semi-quantitative RT-PCR was performed as described previously (Liu et al., 2006). […] The expression data was analyzed by comparative Ct method. […]

DAPK1 promoter = assay: Bisulfite sequencing of the BS1 region of Decitabine-treated Raji cells; type: cell-based; conditions: Decitabine 0.5 μM, untreated 55%
Description: FIG. 2F—Bisulfite treatment for untreated and 6 and 12 days 5-aza-2′-deoxycytidine treated (0.5 μM) Raji cells. Bisulfite treated DNA was amplified for the BS1 region (c.1-1509 to c.1-1262) comprising 30 CpGs and cloned. Sequencing was done for 7-10 clones for each sample. Each row represents a clone. The open circles indicate unmethylated CpG, and closed circles indicate methylated CpG. The overall methylation frequency is given in (%) on the right.
One microgram of genomic DNA was treated with sodium […] according to published protocols (Herman et al., 1996). Regions BS1 and BS2 were amplified (primers are available upon request). The PCR product was purified using the Qiagen Gel Extraction kit (Qiagen, Chatsworth, Calif.) according to the manufacturer's protocol and subcloned using the TOPO TA-Cloning kit (Invitrogen) followed by sequencing of 8-10 clones for each sample using ABI big dye technology.

Question: For `Nc1ncn([C@H]2C[C@H](O)[C@@H](CO)O2)c(=O)n1` [Decitabine, 5-aza-2′-deoxycytidine], which “DAPK1 expression (RT-PCR)” value (DAPK1) is on record?
Answer: Its value is “gradual up-regulation of DAPK1 expression”.

Question: What about the “DNA methylation of CpG dinucleotides, BS1 region” value (DAPK1 promoter; day 6 (70/240)) of the same molecule?
Answer: Its value is 29%.

Question: And the “DNA methylation of CpG dinucleotides, BS1 region” value (DAPK1 promoter; day 12 (68/270))?
Answer: Its value is 25%.
